Read-outs that look alike come from different tables or passages of the source.
Columns and labels:
[1] = test system: Bacillus subtilis ATCC 6633; assay: Test for antibacterial activity (paper disk, diameter of inhibitory zone, before and after incubation in rat liver/kidney homogenate); format: cell-based; settings: 200 mcq/ml, 8 mm paper disk
Description: Each of the test compounds shown in the following table was dissolved in a concentration of 200 mcq/ml in a homogenate of a 10% physiological saline solution of an organ of a rat, and incubated at 37° C. for 2 hours. An enzymatic reaction was stopped by adding an equal amount of ethanol. The antibacterial activity of the test compound before incubation was compared with that after incubation. The incubation was carried out in an equal amount mixture of a liver homogenate and a kidney homogenate. The antibacterial activity was measured by a paper disk having a diameter of 8 mm using Bacillus subtilis ATCC 6633 as a test organism, and shown by the diameter of the resulting inhibitory zone.

[2] = Test for concentrations in blood, intrarectal administration; set-up: species or system Male rats; settings: rat, in vivo
Description: Male rats (body weight 250-350 g: n=3) which had been caused to fast for 18 hours prior to administration were anesthetized with pentobarbirtal. After the abdomen was incised, the upper part of the duodenum was tied. Each of the test compounds was dissolved in water so that its concentration became 12.5 mg/ml as its starting antibiotic (the compound of formula II), and the solution was intraduodenally administered to the rats in a dose of 2 ml/kg. After the administration, blood was drawn periodically from the tail vein, and the concentration of the starting antibiotic in the blood was measured by antimicrobial assay and liquid chromatography.
Male rats (body weight 250-350 g: n=3) which had been caused to fast for 18 hours prior to administration were anesthetized with pentobarbirtal. After the abdomen was incised, the lower part of the rectum was tied. Each of the test compounds was administered intrarectally in the same dose in the same manner as in (1) above, and the concentration of the starting antibiotic in the blood was measured in the same way as in (1) above.

[3] = ATCC6633, after incubation at 37° C. for 2 hours in rat liver homogenate and kidney homogenate, read-out: Diameter of the inhibitory zone, after incubation
[4] = ATCC6633, before incubation, read-out: Diameter of the inhibitory zone, before incubation

SMILES | zone of inhibition at 200 µg/mL [1, 3] [mm] | zone of inhibition at 200 µg/mL [1, 4] [mm] | Maximum concentration in blood Cmax [2] [ng/mL] | Tmax [2] [min]
CC(N)C1CCC(N)C(OC2C(N)CC(O)C(N(C)C(=O)CNC(=O)[C@@H](N)CCC(=O)OCCCOC(=O)CC[C@@H](C)[C@H]3CC[C@H]4[C@@H]5CC[C@@H]6C[C@H](O)CC[C@]6(C)[C@H]5C[C@H](O)[C@]34C)C2O)O1 (stereo partly drawn) [Example 20, 2"-N-[γ-O-(3-deoxycholyloxypropyl)-L-glutamyl]-5-de-O-methyl-KA-6606I] | 21.8 | 14.1 | 7760 | 30
CCCCCCCCCCNC(=O)CC[C@H](N)C(=O)NCC(=O)N(C)C1C(O)CC(N)C(OC2OC(C(C)N)CCC2N)C1O (stereo partly drawn) [Example 32, 2"-N-(N^γ -decyl-L-glutaminyl)-5-de-O-methyl-KA-6606I] | 19 | 14.1 |  | 
CCCCCCNC(=O)CC[C@H](N)C(=O)NCC(=O)N(C)C1C(O)CC(N)C(OC2OC(C(C)N)CCC2N)C1O (stereo partly drawn) [Example 30, 2"-N-(N^γ-hexyl-L-glutaminyl)-5-de-O-methyl-KA-6606I] | 19.8 | 15 |  | 
CCCCCCCCNC(=O)CC[C@H](N)C(=O)NCC(=O)N(C)C1C(O)CC(N)C(OC2OC(C(C)N)CCC2N)C1O (stereo partly drawn) [Example 31, 2"-N-(N^γ-octyl-L-glutaminyl)-5-de-O-methyl-KA-6606I] | 19 | 15.3 |  | 
CC(N)C1CCC(N)C(OC2C(N)CC(O)C(N(C)C(=O)CNC(=O)[C@@H](N)CC(=O)Oc3cccc4ccccc34)C2O)O1 (stereo partly drawn) [Example 12, 2"-N-[β-O-(α-naphthyl)-L-aspartyl]-5-de-O-methyl-KA-6606I] | 18.3 | 12.6 |  | 
CCCCCCCCCCCC(=O)NCCCNC(=O)CC[C@H](N)C(=O)NCC(=O)N(C)C1C(O)CC(N)C(OC2OC(C(C)N)CCC2N)C1O (stereo partly drawn) [Example 39, 2"-N-[N^γ -(3-lauroylaminopropyl)-L-glutaminyl]-5-de-O-methyl-KA-6606I] | 21.2 | 9.8 |  | 
CCCCCCCCCC(=O)OCC(COC(=O)CC[C@H](N)C(=O)NCC(=O)N(C)C1C(O)CC(N)C(OC2OC(C(C)N)CCC2N)C1O)OC(=O)CCCCCCCCC (stereo partly drawn) [Example 17, 2"-N-[γ-O-(2,3-bis-decanoyloxypropyl)-L-glutamyl]-5-de-O-methyl-KA-66606I] | 19.7 | 10.6 |  | 
CC(N)C1CCC(N)C(OC2C(N)CC(O)C(N(C)C(=O)CNC(=O)[C@@H](N)CSC(c3ccccc3)c3ccccc3)C2O)O1 (stereo partly drawn) [Example 53, 2"-N-(S-diphenylmethyl-L-cysteinyl)-5-de-O-methyl-KA-6606I] | 24.3 | 16.5 |  | 
CC(=O)OC1CCC2(C)C(CCC3C2CC(OC(C)=O)C2(C)C(C(C)CCC(=O)OCCCCOC(=O)CCC(N)C(=O)NCC(=O)N(C)C4C(O)CC(N)C(OC5OC(C(C)N)CCC5N)C4O)CCC32)C1 [Example 27, 2"-N-{γ-O-[4-(3,12-di-O-acetyldeoxycholyloxy)butyl]-L-glutamyl}-5-de-O-methyl-KA-6606I] | 23.2 | 13.5 | 5300 | 30
CCCCCCCCCC(=O)OCCOC(=O)CC[C@H](N)C(=O)NCC(=O)N(C)C1C(O)CC(N)C(OC2OC(C(C)N)CCC2N)C1O (stereo partly drawn) [Example 15, 2"-N-[γ-O-(2-decanoyloxyethyl)-L-glutamyl]-5-de-O-methyl-KA-6606I] | 24.4 | 13.9 |  | 
CCCCCCCCCCCCCCCCCCCCCCCC(=O)NCCCNC(=O)CC[C@H](N)C(=O)NCC(=O)N(C)C1C(O)CC(N)C(OC2OC(C(C)N)CCC2N)C1O (stereo partly drawn) [Example 41, 2"-N-[N^γ -(3-lignocerolylaminopropyl)-L-glutaminyl]-5-de-O-methyl-KA-6606I] | 14.1 | 8 |  | 
CCCCCCCCCCCCCCCCCC(=O)NCCCNC(=O)CC[C@H](N)C(=O)NCC(=O)N(C)C1C(O)CC(N)C(OC2OC(C(C)N)CCC2N)C1O (stereo partly drawn) [Example 40, 2"-N-[N^γ -(3-stearoylaminopropyl)-L-glutaminyl]-5-de-O-methyl-KA-6606I] | 16.6 | 14.1 |  | 
CC(N)C1CCC(N)C(OC2C(N)CC(O)C(N(C)C(=O)CNC(=O)[C@@H](N)CCC(=O)OCCCCOC(=O)c3cccc4ccccc34)C2O)O1 (stereo partly drawn) [Example 21, 2"-N-{γ-O-[4-(α-naphthoyloxy)butyl]-L-glutamyl}-5-de-O-methyl-KA-6606I] | 22.6 | 15.1 |  | 
CC(C)OCCCNC(=O)CC[C@H](N)C(=O)NCC(=O)N(C)C1C(O)CC(N)C(OC2OC(C(C)N)CCC2N)C1O (stereo partly drawn) [Example 43, 2"-N-[N^γ -(3-isopropoxypropyl)-L-glutaminyl]-5-de-O-methyl-KA-6606I] | 18.4 | 10.8 |  | 
CCCCCCCCOC(=O)NCCCC[C@H](N)C(=O)NCC(=O)N(C)C1C(O)CC(N)C(OC2OC(C(C)N)CCC2N)C1O (stereo partly drawn) [Example 7, 2"-N-(N^ε -octyloxycarbonyl-L-lysyl)-5-de-O-methyl-KA-6606I] | 20.7 | 10.5 |  | 
CCCNC(=O)CC[C@H](N)C(=O)NCC(=O)N(C)C1C(O)CC(N)C(OC2OC(C(C)N)CCC2N)C1O (stereo partly drawn) [Example 29, 2"-N-(N^γ -propyl-L-glutaminyl)-5-de-O-methyl-KA-6606I] | 24.6 | 15.1 |  | 
CCCCCCCCCC(=O)NCCCNC(=O)CC[C@H](N)C(=O)NCC(=O)N(C)C1C(O)CC(N)C(OC2OC(C(C)N)CCC2N)C1O (stereo partly drawn) [Example 38, 2"-N-[N^γ -(3-decanoylaminopropyl)-L-glutaminyl]-5-de-O-methyl-KA-6606I] | 23.9 | 17.1 |  | 
CCCCCCCCCC(=O)NCCCC[C@H](N)C(=O)NCC(=O)N(C)C1C(O)CC(N)C(OC2OC(C(C)N)CCC2N)C1O (stereo partly drawn) [Example 2, 2"-N-(N^ε -decanoyl-L-lysyl)-5-de-O-methyl-KA-6606I] | 22 | 15.9 |  | 
CCCCCCCCCC(=O)OCC(COC(=O)CCCCCCCCC)OC(=O)CCC(N)C(=O)NCC(=O)N(C)C1C(O)CC(N)C(OC2OC(C(C)N)CCC2N)C1O [Example 16, 2"-N-{γ-O-[2-(1,3-bis-decanoyloxy)propyl]-L-glutamyl}-5-de-O-methyl-KA-6606I] | 17.5 | 12.5 |  | 
CCCCCCCCCCCCCCCCCC(=O)OCCCCOC(=O)CC[C@H](N)C(=O)NCC(=O)N(C)C1C(O)CC(N)C(OC2OC(C(C)N)CCC2N)C1O (stereo partly drawn) [Example 24, 2"-N-[γ-O-(4-stearoyloxybutyl)-L-glutamyl]-5-de-O-methyl-KA-6606I] | 22.6 | 16.2 |  | 
CCCCCCCCCC(=O)NCCCCC(NC(=O)CC[C@H](N)C(=O)NCC(=O)N(C)C1C(O)CC(N)C(OC2OC(C(C)N)CCC2N)C1O)C(=O)OC (stereo partly drawn) [Example 49, 2"-N-{N^γ -[5-(decanoylamino)-1-(methoxycarbonyl)pentyl]-L-glutaminyl}-5-de-O-methyl-KA-6066I] | 16.1 | 15.9 |  | 
CC(N)C1CCC(N)C(OC2C(N)CC(O)C(N(C)C(=O)CNC(=O)[C@@H](N)CSCc3ccncc3)C2O)O1 (stereo partly drawn) [Example 54, 2"-N-[S-(4-picolyl)-L-cysteinyl]-5-de-O-methyl-KA-6606I] | 25.3 | 14.1 |  | 
CCCCCCCCCC(=O)OCCCOC(=O)CC[C@H](N)C(=O)NCC(=O)N(C)C1CCC(N)C(OC2OC(C(C)N)CCC2N)C1O (stereo partly drawn) [Example 56, 2"-N-[N^γ -(3-decanoyloxypropyl)-L-glutamyl)-5-demethoxy-KA-6606I] | 24.6 | 17.5 |  | 
CCCCCCCCCCCCCCCCCC(=O)NCCCC[C@H](N)C(=O)NCC(=O)N(C)C1C(O)CC(N)C(OC2OC(C(C)N)CCC2N)C1O (stereo partly drawn) [Example 3, 2"-N-(N^ε -stearoyl-L-lysyl)-5-de-O-methyl-KA-6606I] | 15.5 | 14 |  | 
CC(N)C1CCC(N)C(OC2C(N)CC(O)C(N(C)C(=O)CNC(=O)[C@@H](N)CC(=O)OC(C)(C)C)C2O)O1 (stereo partly drawn) [Example 9, 2"-N-(β-O-tert.-butyl-L-aspartyl)-5-de-O-methyl-KA-6606I] | 23.2 | 12.7 |  | 
COC(=O)C[C@H](N)C(=O)NCC(=O)N(C)C1C(O)CC(N)C(OC2OC(C(C)N)CCC2N)C1O (stereo partly drawn) [Example 8, 2"-N-(β-O-methyl-L-aspartyl)-5-de-O-methyl-KA-666I] | 23.9 | 15.9 |  | 
